According to ChEMBL document CHEMBL4364276, “Discovery of 4-phenyl-2H-benzo[b][1,4]oxazin-3(4H)-one derivatives as potent and orally active PI3K/mTOR dual inhibitors” (Eur J Med Chem, 2019):

Columns and labels:
[1] = target: Casein kinase I isoform gamma-1 (Homo sapiens) (UniProt Q9HCP0); experiment: Inhibition of human CK1gamma1 at 100 nM using KRRRAL[pS]VASLPGL as substrate by [gamma-33P]-ATP assay
[2] = target: Vascular endothelial growth factor receptor 2 (Homo sapiens) (UniProt P35968); experiment: Inhibition of human KDR at 100 nM using poly[Glu:Tyr] (4:1) as substrate by [gamma-33P]-ATP assay
[3] = target: Serine/threonine-protein kinase SIK1 (Homo sapiens) (UniProt P57059); experiment: Inhibition of human SIK1 at 100 nM using AMARAASAAALARRR as substrate by [gamma-33P]-ATP assay
[4] = target: Serine/threonine-protein kinase Nek11 (Homo sapiens) (UniProt Q8NG66); experiment: Inhibition of human NEK11 at 100 nM using MBP as substrate by [gamma-33P]-ATP assay
[5] = test system: HeLa; experiment: Inhibition of colony formation in human HeLa cells at 1.25 uM incubated for 2 weeks crystal violet staining based assay; type: functional; conditions: 336 h
[6] = target: MAP/microtubule affinity-regulating kinase 3 (Homo sapiens) (UniProt P27448); experiment: Inhibition of human MARK3 at 100 nM using KKKVSRSGLYRSPSMPENLNRPR as substrate by [gamma-33P]-ATP assay
[7] = target: CDK3/Cyclin-E2 (Homo sapiens) (UniProt O96020+Q00526); experiment: Inhibition of human CDK3/cyclin-E2 at 100 nM using histone H1 as substrate by [gamma-33P]-ATP assay; type: protein-complex assay
[8] = target: Ephrin type-B receptor 3 (Homo sapiens) (UniProt P54753); experiment: Inhibition of human EPHB3 at 100 nM using poly[Glu:Tyr] (4:1) as substrate by [gamma-33P]-ATP assay
[9] = target: Serine/threonine-protein kinase MRCK gamma (Homo sapiens) (UniProt Q6DT37); experiment: Inhibition of human DMPK2 at 100 nM using KKRPQRRYSNVF as substrate by [gamma-33P]-ATP assay
[10] = target: Serine/threonine-protein kinase D1 (Homo sapiens) (UniProt Q15139); experiment: Inhibition of human PKCmu at 100 nM using KKLNRTLSVA as substrate by [gamma-33P]-ATP assay
[11] = target: cGMP-dependent protein kinase 1 (Homo sapiens) (UniProt Q13976); experiment: Inhibition of human PKG1alpha at 100 nM using LRRASLG as substrate by [gamma-33P]-ATP assay
[12] = target: Mitogen-activated protein kinase kinase kinase 20 (Homo sapiens) (UniProt Q9NYL2); experiment: Inhibition of human ZAK at 100 nM using MBP as substrate by [gamma-33P]-ATP assay
[13] = target: Serine/threonine-protein kinase 24 (Homo sapiens) (UniProt Q9Y6E0); experiment: Inhibition of human MST3 at 100 nM using MBP as substrate by [gamma-33P]-ATP assay
[14] = target: Tyrosine-protein kinase receptor UFO (Homo sapiens) (UniProt P30530); experiment: Inhibition of human AXL at 100 nM using EAIYAAPFAKKK as substrate by [gamma-33P]-ATP assay
[15] = target: Testis-specific serine/threonine-protein kinase 1 (Homo sapiens) (UniProt Q9BXA7); experiment: Inhibition of human STK22D at 100 nM using KKKVSRSGLYRSPSMPENLNRPR as substrate by [gamma-33P]-ATP assay
[16] = target: Mitogen-activated protein kinase kinase kinase kinase 4 (Homo sapiens) (UniProt O95819); experiment: Inhibition of human HGK at 100 nM using MBP as substrate by [gamma-33P]-ATP assay
[17] = target: Receptor-interacting serine/threonine-protein kinase 4 (Homo sapiens) (UniProt P57078); experiment: Inhibition of human RIPK4 at 100 nM using histone H2A as substrate by [gamma-33P]-ATP assay
[18] = target: Mitogen-activated protein kinase kinase kinase 7 (Homo sapiens) (UniProt O43318); experiment: Inhibition of human TAK1 at 100 nM using casein as substrate by [gamma-33P]-ATP assay
[19] = target: Death-associated protein kinase 2 (Homo sapiens) (UniProt Q9UIK4); experiment: Inhibition of human DAPK2 at 100 nM using KKLNRTLSFAEPG as substrate by [gamma-33P]-ATP assay
[20] = target: Platelet-derived growth factor receptor alpha (Homo sapiens) (UniProt P16234); experiment: Inhibition of human PDGFRalpha at 100 nM using poly[Glu:Tyr] (4:1) as substrate by [gamma-33P]-ATP assay
[21] = target: Mitogen-activated protein kinase kinase kinase kinase 2 (Homo sapiens) (UniProt Q12851); experiment: Inhibition of human GCK at 100 nM using MBP as substrate by [gamma-33P]-ATP assay
[22] = target: Non-receptor tyrosine-protein kinase TNK1 (Homo sapiens) (UniProt Q13470); experiment: Inhibition of human TNK1 at 100 nM using poly[Glu:Tyr] (4:1) as substrate by [gamma-33P]-ATP assay
[23] = test system: A549; experiment: cells; conditions: Homo sapiens, A549, 72 h
[24] = target: Epithelial discoidin domain-containing receptor 1 (Homo sapiens) (UniProt Q08345); experiment: Inhibition of human DDR1 at 100 nM using KKSRGDYMTMQIG as substrate by [gamma-33P]-ATP assay
[25] = target: Tyrosine-protein kinase ITK/TSK (Homo sapiens) (UniProt Q08881); experiment: Inhibition of human ITK at 100 nM using MBP as substrate by [gamma-33P]-ATP assay
[26] = target: eIF-2-alpha kinase GCN2 (Homo sapiens) (UniProt Q9P2K8); experiment: Inhibition of human EIF2AK4 at 100 nM using MBP as substrate by [gamma-33P]-ATP assay
[27] = target: Calcium/calmodulin-dependent protein kinase kinase 2 (Homo sapiens) (UniProt Q96RR4); experiment: Inhibition of human CAMKK2 at 100 nM using MBP as substrate by [gamma-33P]-ATP assay
[28] = target: Cyclin-dependent kinase 1/cyclin B1 (Homo sapiens) (UniProt P06493+P14635); experiment: Inhibition of human CDK1/cyclinB at 100 nM using Histone H1 as substrate by [gamma-33P]-ATP assay; type: protein-complex assay
[29] = target: Ephrin type-A receptor 4 (Homo sapiens) (UniProt P54764); experiment: Inhibition of human EPHA4 at 100 nM using poly[Glu:Tyr] (4:1) as substrate by [gamma-33P]-ATP assay
[30] = target: Fibroblast growth factor receptor 4 (Homo sapiens) (UniProt P22455); experiment: Inhibition of human FGFR4 at 100 nM using poly[Glu:Tyr] (4:1) as substrate by [gamma-33P]-ATP assay
[31] = test system: HeLa; experiment: Inhibition of colony formation in human HeLa cells at > 5 uM incubated for 2 weeks crystal violet staining based assay; type: functional
[32] = target: Serine/threonine-protein kinase greatwall (Homo sapiens) (UniProt Q96GX5); experiment: Inhibition of human MASTL at 100 nM using ERK2 as substrate by [gamma-33P]-ATP assay

Sequence of Non-receptor tyrosine-protein kinase TNK1 (Homo sapiens) (Q13470 whole entry): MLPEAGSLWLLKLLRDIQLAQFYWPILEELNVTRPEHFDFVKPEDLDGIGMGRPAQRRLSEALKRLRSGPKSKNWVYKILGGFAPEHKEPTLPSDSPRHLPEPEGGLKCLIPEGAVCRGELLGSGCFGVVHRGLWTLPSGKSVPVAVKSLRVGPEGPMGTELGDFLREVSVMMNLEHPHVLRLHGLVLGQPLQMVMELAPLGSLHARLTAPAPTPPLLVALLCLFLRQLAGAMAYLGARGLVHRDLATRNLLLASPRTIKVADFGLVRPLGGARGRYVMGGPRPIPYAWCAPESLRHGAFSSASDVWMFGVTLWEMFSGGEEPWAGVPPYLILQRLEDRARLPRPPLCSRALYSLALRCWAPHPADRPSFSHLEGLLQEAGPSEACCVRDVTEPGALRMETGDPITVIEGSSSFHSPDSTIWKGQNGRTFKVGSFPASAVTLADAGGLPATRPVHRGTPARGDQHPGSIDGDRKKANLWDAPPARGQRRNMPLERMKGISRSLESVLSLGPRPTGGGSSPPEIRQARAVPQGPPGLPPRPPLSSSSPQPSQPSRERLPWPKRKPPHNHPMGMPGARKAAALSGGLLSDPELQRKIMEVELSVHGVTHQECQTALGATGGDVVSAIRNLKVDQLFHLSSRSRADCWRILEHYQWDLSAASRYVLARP
Sequence of Ephrin type-A receptor 4 (Homo sapiens) (P54764 whole entry): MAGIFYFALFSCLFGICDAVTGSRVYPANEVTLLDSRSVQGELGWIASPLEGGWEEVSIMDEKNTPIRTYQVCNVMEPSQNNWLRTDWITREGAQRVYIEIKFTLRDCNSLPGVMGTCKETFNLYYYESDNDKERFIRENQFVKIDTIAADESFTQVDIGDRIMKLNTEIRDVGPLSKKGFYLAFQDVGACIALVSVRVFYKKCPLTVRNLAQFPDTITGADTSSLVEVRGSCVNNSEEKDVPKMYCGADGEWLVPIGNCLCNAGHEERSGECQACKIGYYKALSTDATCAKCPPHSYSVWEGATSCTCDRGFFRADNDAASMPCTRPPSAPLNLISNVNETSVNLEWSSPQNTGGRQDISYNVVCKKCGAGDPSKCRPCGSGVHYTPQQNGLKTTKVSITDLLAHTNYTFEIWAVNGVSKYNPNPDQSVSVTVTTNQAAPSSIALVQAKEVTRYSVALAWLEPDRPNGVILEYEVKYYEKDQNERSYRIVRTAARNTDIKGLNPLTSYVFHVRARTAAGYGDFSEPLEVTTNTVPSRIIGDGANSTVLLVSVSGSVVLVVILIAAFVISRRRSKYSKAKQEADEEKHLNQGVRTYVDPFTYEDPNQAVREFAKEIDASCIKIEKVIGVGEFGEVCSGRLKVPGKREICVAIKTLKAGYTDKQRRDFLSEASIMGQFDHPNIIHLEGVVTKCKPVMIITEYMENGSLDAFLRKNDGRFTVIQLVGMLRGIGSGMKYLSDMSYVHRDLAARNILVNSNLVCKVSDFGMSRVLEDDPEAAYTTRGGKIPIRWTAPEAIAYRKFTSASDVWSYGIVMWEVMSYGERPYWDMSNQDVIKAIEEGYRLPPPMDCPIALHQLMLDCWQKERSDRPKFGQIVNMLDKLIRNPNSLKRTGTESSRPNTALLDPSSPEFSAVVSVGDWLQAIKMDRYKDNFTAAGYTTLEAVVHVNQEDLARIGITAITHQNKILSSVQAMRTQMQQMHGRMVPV
Sequence of Receptor-interacting serine/threonine-protein kinase 4 (Homo sapiens) (P57078 whole entry): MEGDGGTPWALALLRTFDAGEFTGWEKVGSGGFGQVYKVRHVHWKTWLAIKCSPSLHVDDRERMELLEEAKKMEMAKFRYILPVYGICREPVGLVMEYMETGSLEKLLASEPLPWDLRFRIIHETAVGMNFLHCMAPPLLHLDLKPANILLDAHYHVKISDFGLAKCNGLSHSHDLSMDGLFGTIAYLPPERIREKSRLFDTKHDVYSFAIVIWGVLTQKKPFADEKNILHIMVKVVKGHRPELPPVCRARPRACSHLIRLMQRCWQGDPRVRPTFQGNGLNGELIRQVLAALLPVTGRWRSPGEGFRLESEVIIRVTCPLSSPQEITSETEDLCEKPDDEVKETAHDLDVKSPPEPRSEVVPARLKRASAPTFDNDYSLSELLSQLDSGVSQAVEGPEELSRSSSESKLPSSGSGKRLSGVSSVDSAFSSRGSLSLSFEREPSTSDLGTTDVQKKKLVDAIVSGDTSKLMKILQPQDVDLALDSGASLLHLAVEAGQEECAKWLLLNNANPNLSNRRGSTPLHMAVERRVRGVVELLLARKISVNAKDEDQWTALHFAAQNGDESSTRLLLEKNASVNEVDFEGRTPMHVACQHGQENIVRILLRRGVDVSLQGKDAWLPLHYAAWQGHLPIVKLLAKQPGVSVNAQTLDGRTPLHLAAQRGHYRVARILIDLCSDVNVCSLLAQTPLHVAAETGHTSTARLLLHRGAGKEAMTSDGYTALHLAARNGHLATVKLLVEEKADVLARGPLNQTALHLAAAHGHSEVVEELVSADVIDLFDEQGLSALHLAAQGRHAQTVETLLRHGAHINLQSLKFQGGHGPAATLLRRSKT
Sequence of eIF-2-alpha kinase GCN2 (Homo sapiens) (Q9P2K8 whole entry): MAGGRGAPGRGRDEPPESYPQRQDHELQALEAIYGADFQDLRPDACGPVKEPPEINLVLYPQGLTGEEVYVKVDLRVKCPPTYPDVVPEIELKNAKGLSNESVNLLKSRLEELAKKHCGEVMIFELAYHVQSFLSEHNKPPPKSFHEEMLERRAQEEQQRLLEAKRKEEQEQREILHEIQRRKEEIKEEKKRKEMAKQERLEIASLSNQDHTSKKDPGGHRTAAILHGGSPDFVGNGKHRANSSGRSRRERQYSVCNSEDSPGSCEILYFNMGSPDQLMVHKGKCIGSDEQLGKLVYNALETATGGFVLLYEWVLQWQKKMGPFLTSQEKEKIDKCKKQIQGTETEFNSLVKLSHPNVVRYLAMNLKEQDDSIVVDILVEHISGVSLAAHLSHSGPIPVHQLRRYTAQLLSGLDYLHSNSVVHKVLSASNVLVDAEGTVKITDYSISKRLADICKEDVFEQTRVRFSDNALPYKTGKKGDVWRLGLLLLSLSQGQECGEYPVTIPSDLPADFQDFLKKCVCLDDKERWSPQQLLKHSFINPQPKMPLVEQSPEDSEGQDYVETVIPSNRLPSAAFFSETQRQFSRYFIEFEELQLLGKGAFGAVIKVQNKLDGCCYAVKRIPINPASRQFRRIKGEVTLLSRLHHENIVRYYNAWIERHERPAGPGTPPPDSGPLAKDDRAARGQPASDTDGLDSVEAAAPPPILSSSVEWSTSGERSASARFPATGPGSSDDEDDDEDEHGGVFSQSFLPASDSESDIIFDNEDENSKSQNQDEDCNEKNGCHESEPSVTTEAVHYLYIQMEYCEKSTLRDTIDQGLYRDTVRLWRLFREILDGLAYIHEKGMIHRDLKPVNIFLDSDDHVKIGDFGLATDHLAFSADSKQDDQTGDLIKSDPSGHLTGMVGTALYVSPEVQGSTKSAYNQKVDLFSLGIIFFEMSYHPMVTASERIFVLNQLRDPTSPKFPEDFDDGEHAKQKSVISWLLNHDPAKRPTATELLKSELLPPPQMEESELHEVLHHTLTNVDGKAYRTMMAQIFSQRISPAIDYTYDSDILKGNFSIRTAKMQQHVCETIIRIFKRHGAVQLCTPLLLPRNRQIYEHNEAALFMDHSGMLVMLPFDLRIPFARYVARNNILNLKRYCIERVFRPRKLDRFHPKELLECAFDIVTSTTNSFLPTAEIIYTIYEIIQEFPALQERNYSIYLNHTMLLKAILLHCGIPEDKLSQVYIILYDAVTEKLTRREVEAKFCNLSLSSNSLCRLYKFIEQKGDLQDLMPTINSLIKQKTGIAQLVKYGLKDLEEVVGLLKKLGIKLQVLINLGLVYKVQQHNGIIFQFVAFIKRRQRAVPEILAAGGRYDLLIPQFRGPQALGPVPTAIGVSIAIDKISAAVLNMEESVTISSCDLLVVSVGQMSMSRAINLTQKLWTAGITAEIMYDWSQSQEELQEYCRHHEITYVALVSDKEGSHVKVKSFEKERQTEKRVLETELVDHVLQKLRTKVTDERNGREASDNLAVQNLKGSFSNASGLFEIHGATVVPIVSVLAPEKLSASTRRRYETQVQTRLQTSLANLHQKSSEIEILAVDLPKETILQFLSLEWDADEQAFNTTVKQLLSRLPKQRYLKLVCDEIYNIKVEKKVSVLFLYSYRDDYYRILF
Sequence of Mitogen-activated protein kinase kinase kinase 20 (Homo sapiens) (Q9NYL2 2-800 limits assumed): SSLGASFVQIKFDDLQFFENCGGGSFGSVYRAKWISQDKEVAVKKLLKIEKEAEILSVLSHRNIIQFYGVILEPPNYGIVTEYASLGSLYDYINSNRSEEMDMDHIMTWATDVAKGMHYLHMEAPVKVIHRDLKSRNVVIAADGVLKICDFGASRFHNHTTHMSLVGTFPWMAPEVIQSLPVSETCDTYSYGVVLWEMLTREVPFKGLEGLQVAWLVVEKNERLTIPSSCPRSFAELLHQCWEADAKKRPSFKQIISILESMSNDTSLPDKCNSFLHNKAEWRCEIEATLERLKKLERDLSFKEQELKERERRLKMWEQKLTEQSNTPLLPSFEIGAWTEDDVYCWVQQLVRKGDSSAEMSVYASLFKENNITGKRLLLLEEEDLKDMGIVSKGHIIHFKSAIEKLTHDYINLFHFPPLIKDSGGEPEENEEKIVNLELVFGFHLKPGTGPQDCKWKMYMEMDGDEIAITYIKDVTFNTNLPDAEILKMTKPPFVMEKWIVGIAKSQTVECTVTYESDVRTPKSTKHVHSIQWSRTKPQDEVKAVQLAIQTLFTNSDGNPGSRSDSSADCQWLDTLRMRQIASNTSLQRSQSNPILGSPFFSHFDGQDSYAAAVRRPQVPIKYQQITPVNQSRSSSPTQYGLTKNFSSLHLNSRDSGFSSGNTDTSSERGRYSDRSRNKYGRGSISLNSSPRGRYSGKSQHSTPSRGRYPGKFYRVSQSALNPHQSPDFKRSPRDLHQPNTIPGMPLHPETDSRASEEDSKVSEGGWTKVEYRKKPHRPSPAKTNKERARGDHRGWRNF

## COc1ccc(N2C(=O)COc3ccc(-c4cnc(OC)c(NS(=O)(=O)c5ccc(F)cc5)c4)cc32)cc1
[1]
  inhibition: 6.26%
[2]
  inhibition: -3.23%
[3]
  inhibition: 5.31%
[4]
  inhibition: 17.5%
[5]
  inhibition at 1.25 µM: > 50%
[6]
  inhibition: -2.27%
[7]
  inhibition: 4%
[8]
  inhibition: -1.65%
[9]
  inhibition: -9.5%
[10]
  inhibition: 25.9%
[11]
  inhibition: 4.25%
[12]
  inhibition: -6.81%
[13]
  inhibition: 10.6%
[14]
  inhibition: 25.4%
[15]
  inhibition: -6.47%
[16]
  inhibition: 19.4%
[17]
  inhibition: 1.41%
[18]
  inhibition: 12.5%
[19]
  inhibition: -3.64%
[20]
  inhibition: -1.93%
[21]
  inhibition: 1.33%
[22]
  inhibition: 10.7%
[23]
  IC50: 1.35 µM
[24]
  inhibition: 2.59%
[25]
  inhibition: -1.21%
[26]
  inhibition: 8.65%
[27]
  inhibition: 13.7%
[28]
  inhibition: -2.84%
[29]
  inhibition: 6.1%
[30]
  inhibition: 6.2%
[31]
  inhibition (INH): <=100%
[32]
  inhibition: -1.96%
